Experimental findings from US20130204017A1, “GLYCERYL ASCORBIC ACID ACYLATED DERIVATIVE OR ITS SALT, PRODUCTION METHOD THEREOF, AND COSMETICS” (SEIWA KASEI COMPANY, LIMITED, priority 2012, published 2013) are described below.

One data set has as its system B16 melanoma 4A5 cell. The data set is described as follows: Melanin production suppressing evaluation test (theophylline-induced melanine production). The format is cell-based, mouse. The note with it: sample at a concentration of 100 μl or less; 0.2 mM theophylline; culturing 3 days. How it is done:
As a test for a whitening effect, evaluation of the action of B16 melanoma 4A5 cell on theophylline-induced melanine production was carried out on a glyceryl ascorbic acid acylated derivative of the present invention, according to the following procedure. The same evaluations were carried out also on arbutin, ascorbic acid, sodium ascorbate, magnesium ascorbyl phosphate, glucosyl ascorbic acid, and 3-O-glyceryl ascorbic acid and 2-O-glyceryl ascorbic acid obtained in the Synthesis Examples mentioned above, as comparison.
(1) B16 mouse melanoma 4A5 strain was sowed onto a 48-well plate at a cell density of 2.0×10^4 cells/well. (2) Culturing was performed for 24 hours with Dulbecco's Modified Eagle's medium (manufactured by SIGMA. Hereinafter, abbreviated as D-MEM) containing 10% fetal bovine serum (manufactured by Roshe Diagnostics). Then, it was changed to 0.2 mM theophylline and a 10% fetal bovine serum-containing D-MEM which contains a sample of given concentration. (3) After culturing for 3 days in the co-existence of a sample, the medium was removed using an aspirator. Then, after distilled water was added, cells were broken by an ultrasonic wave. (4) Thereafter, the amount of protein was determined using BCA protein assay kit (manufactured by PIERCE), and the produced amount of melanine was measured by an alkali solubilizing method described later. To the cell-destructed solution was added sodium hydroxide so as to give a final concentration of 2 mol/L and the mixture was dissolved by heating (60° C., 15 minutes), then, the absorbance at 450 nm was measured using a micro plate reader. The melanine amount was calculated from a calibration curve made using synthetic melanine (SIGMA) as a standard. The melanine amount per unit protein was calculated by dividing the melanine amount by the protein amount. (5) The melanine production suppressing rate was calculated according to the following formula.
Melanine production suppressing rate(%)=[1−(A−B)/(C−B)]×100
[wherein, A represents the melanine amount per unit protein (g/g) in adding a sample, B represents the melanine amount per unit protein (g/g) in the normal group, and C represents the melanine amount per unit protein (g/g) in the control group.]
The normal group means the case where neither theophylline nor sample was added.(that is; theophylline(−) and sample(−))
The control group means the case where neither sample was not added but theophylline was added.(that is; theophylline (+) and sample(−))
In the following Tables, the melanine production suppressing rate in applying a sample at a concentration of […] or less is expressed as described below.

The subject of data set [1] is Normal human dermal fibroblasts. Briefly: Collagen production evaluation test (Sircol collagen assay). The class given is cell-based. The note with it: sample 100 μM, cultured 48 hours; for activity at 100 µM: Homo sapiens, Fibroblast, read-out: Collagen production promoting effect (collagen production amount, control group is 100%). As to the method: The collagen production promoting effects of the glyceryl ascorbic acid acylated derivatives of the present invention were evaluated, according to the following procedure. As comparison, arbutin, ascorbic acid, sodium ascorbate, magnesium ascorbyl phosphate, glucosyl ascorbic acid, 3-O-glyceryl ascorbic acid and 2-O-glyceryl ascorbic acid were used like in Test Example 1.
Normal human dermal fibroblasts were regulated with a 10% (v/v) fetal bovine serum (manufactured by Invitrogen)-containing D-MEM so as to give a cell density of 2.5×10^4 cells/well, then, pre-incubation for 24 hours was performed on a 96-well plate. After the medium was removed, a sample regulated with a 5% (v/v) fetal bovine serum-containing D-MEM to a concentration of 100 μM was added to each well, then, cultured for 48 hours at 37° C. and 5% CO2. After completion of culturing, the amount of free collagen was measured using Sircol collagen assay kit (manufactured by Biocolor).
The collagen production amount in applying a sample at a concentration of 100 μM is obtained as % value when the control group is 100%, and the results are shown in Table 4 based on the following standard.

The nature of data set [2]: Stability test: odor and color change of 2% aqueous solution stored at 50° C. The class given is physicochemical. The note with it: pH7, ten panelists. How it is done:
Using 2-O-glyceryl-6-O-octanoyl ascorbic acid obtained in Example 2 and 2-O-glyceryl-6-O-octadecanoyl ascorbic acid obtained in Example 9, an evaluation was made on the stability of odor and color change when stored at 50° C. for 4 weeks, according to the following procedure. For comparison, magnesium ascorbyl phosphate, ascorbic acid and 3-O-glyceryl ascorbic acid were used.
Aqueous solutions (2%) of various test samples were adjusted to pH7 with a dilute sodium hydroxide aqueous solution or a dilute hydrochloric acid aqueous solution, and charged into 50 mL screw tubes. The tubes were sealed and stored at 50° C. for 4 weeks. The odor and degree of color change immediately after preparation, after storage for two weeks and after storage for four weeks were evaluated by ten panelists based on the following methods and according to the following criterion.
3: almost no change as compared with that immediately after preparation
2: color change is observed as compared with that immediately after preparation
1: intense color change is observed as compared with that immediately after preparation
Based on the evaluation results, classification was conducted as shown below.
◯: total point of 10 panelists is 25 or more
Δ: total point of 10 panelists is 16 to 24
x: total point of 10 panelists is 15 or less

The mark [3] stands for this setting: storage period 0 (immediately after preparation).

Turning to `OC[C@H]1O[C@@H](Oc2ccc(O)cc2)[C@H](O)[C@@H](O)[C@@H]1O` [Arbutin, reference compound], the “Whitening effect (melanine production suppressing rate)” value (“Whitening effect” below) with B16 melanoma 4A5 cell was “⊚ (50% or more)”. In data set [1], the activity at 100 µM was less than 100%.
Take `O=C1O[C@H]([C@@H](O)CO)C(O)=C1O` [Ascorbic acid]: the Odor result in data set [2] (storage 2 weeks at 50° C.) was “Δ (total point of 10 panelists is 16 to 24)”. Further, in data set [2] (setting [3]), the Color change entry was “◯ (total point of 10 panelists is 25 or more)” and the Odor result is given as “◯ (total point of 10 panelists is 25 or more)”. Moreover, the “Whitening effect” value with B16 melanoma 4A5 cell was “Δ (Less than 30%)”. In addition, the activity at 100 µM in data set [1] fell in the range of 100 to 200%.
For the compound `CCCCCCCCCCCCCC(=O)OC[C@H](O)[C@H]1OC(=O)C(OCC(O)CO)=C1O` (stereo partly shown) [Example 7, 2-O-glyceryl-6-O-tetradecanoyl ascorbic acid], in the data set on B16 melanoma 4A5 cell, the “Whitening effect” value was “⊚ (50% or more)”.
As to `CCCCCCCCCCCCCCCCCC(=O)OC[C@H](O)[C@H]1OC(=O)C(OCC(O)CO)=C1O` (stereo partly shown) [Example 9, 2-O-glyceryl-6-O-octadecanoyl ascorbic acid], the Color change result in data set [2] (storage 2 weeks at 50° C.), in data set [2] (storage 4 weeks at 50° C.) and in data set [2] (setting [3]) was “◯ (total point of 10 panelists is 25 or more)” in each case. The Odor entry in data set [2] (storage 2 weeks at 50° C.), in data set [2] (storage 4 weeks at 50° C.) and in data set [2] (setting [3]) was “◯ (total point of 10 panelists is 25 or more)” throughout. The “Whitening effect” value with B16 melanoma 4A5 cell is listed as “⊚ (50% or more)”.
As to `CCCCCCCC/C=C\CCCCCCCC(=O)OC[C@H](O)[C@H]1OC(=O)C(OCC(O)CO)=C1O` (stereo partly shown) [Example 10, 2-O-glyceryl-6-O-oleoyl ascorbic acid], in the data set on B16 melanoma 4A5 cell, the “Whitening effect” value is on record as “⊚ (50% or more)”.
Consider `CCCC(=O)OCC(O)COC1=C(O)[C@@H]([C@@H](O)COC(=O)CCC)OC1=O` (stereo partly shown) [Example 11, 2-O-(3′-O-butanoylglyceryl)-6-O-butanoyl ascorbic acid], for which, in the data set with B16 melanoma 4A5 cell, the “Whitening effect” value is “◯ (30 to 49%)”.
For the compound `CCCC(=O)OCC(O)COC1=C(OC(=O)CCC)[C@@H]([C@@H](O)COC(=O)CCC)OC1=O` (stereo partly shown) [Example 13, 2-O-(3′-O-butanoylglyceryl)-3,6-di-O-butanoyl ascorbic acid], in the data set on B16 melanoma 4A5 cell, the “Whitening effect” value is reported as “⊚ (50% or more)”. In data set [1], the activity at 100 µM is 100 to 200%.
For `CCCCCCCC(=O)OCC(O)COC1=C(O)[C@@H]([C@@H](O)COC(=O)CCC)OC1=O` (stereo partly shown) [Example 15, 2-O-(3′-O-octanoylglyceryl)-6-O-butanoyl ascorbic acid], the activity at 100 µM in data set [1] was 100 to 200%.
With `CCCCCCCCCCCCCCCC(=O)OCC(O)COC1=C(O)[C@@H]([C@@H](O)COC(=O)CCC)OC1=O` (stereo partly shown) [Example 16, 2-O-(3′-O-hexadecanoylglyceryl)-6-O-butanoyl ascorbic acid], in the data set with B16 melanoma 4A5 cell, the “Whitening effect” value was “⊚ (50% or more)”.
Take `CCCCCCCCCCCC(=O)OC[C@H](O)[C@H]1OC(=O)C(OCC(O)COC(=O)CCC)=C1O` (stereo partly shown) [Example 17, 2-O-(3′-O-butanoylglyceryl)-6-O-dodecanoyl ascorbic acid]: in data set [1], the activity at 100 µM lay within 100 to 200%.
With `CCCCCCCC(=O)OC1=C(OCC(O)CO)C(=O)O[C@@H]1[C@@H](O)CO` (stereo partly shown) [Example 18, 2-O-glyceryl-3-O-octanoyl ascorbic acid], the activity at 100 µM in data set [1] is 100 to 200%.
In the case of `CCCCCCCCCCCC(=O)OC1=C(OCC(O)CO)C(=O)OC1C(O)COC(=O)CCCCCCC` (stereo not shown) [Example 19, 2-O-glyceryl-3-O-dodecanoyl-6-O-octanoy ascorbic acid], the “Whitening effect” value with B16 melanoma 4A5 cell is “⊚ (50% or more)”.
In the case of `CCCC(=O)OC[C@H](O)[C@H]1OC(=O)C(O)=C1OCC(O)CO` (stereo partly shown) [Example 20, 3-O-glyceryl-6-O-butanoyl ascorbic acid], the activity at 100 µM in data set [1] is 100 to 200%.
For `CCCCCCCC(=O)OC[C@H](O)[C@H]1OC(=O)C(O)=C1OCC(O)CO` (stereo partly shown) [Example 21, 3-O-glyceryl-6-O-octanoyl ascorbic acid], the “Whitening effect” value in the data set with B16 melanoma 4A5 cell was “⊚ (50% or more)”.
As for `CCCCCCCCCCCCCCCC(=O)OC[C@H](O)[C@H]1OC(=O)C(O)=C1OCC(O)CO` (stereo partly shown) [Example 22, 3-O-glyceryl-6-O-hexadecanoyl ascorbic acid], the activity at 100 µM in data set [1] lay within 100 to 200%.
Take `CCCCCCCCCCCC(=O)OCC(O)COC1=C(O)C(=O)O[C@@H]1[C@@H](O)COC(=O)CCC` (stereo partly shown) [Example 23, 3-O-(3′-O-dodecanoylglyceryl)-6-O-butanoyl ascorbic acid]: the activity at 100 µM in data set [1] lay in the range of 100 to 200%.
For `O=C1O[C@H]([C@@H](O)CO)C([O-])=C1OP(=O)([O-])[O-].O=C1O[C@H]([C@@H](O)CO)C([O-])=C1OP(=O)([O-])[O-].[Mg+2].[Mg+2].[Mg+2]` [Magnesium ascorbyl phosphate], the Color change result was “Δ (total point of 10 panelists is 16 to 24)” in data set [2] (storage 2 weeks at 50° C.) and “◯ (total point of 10 panelists is 25 or more)” in data set [2] (setting [3]). For the same compound, the Odor result in data set [2] (storage 2 weeks at 50° C.), in data set [2] (storage 4 weeks at 50° C.) and in data set [2] (setting [3]) was “◯ (total point of 10 panelists is 25 or more)” each time. Moreover, the “Whitening effect” value with B16 melanoma 4A5 cell is recorded as “Δ (Less than 30%)”. The “Collagen production promoting effect (collagen production amount, control group is 100%)” value in data set [1] was “+ (100 to 200%)”.
In the case of `O=C1O[C@H]([C@@H](O)CO)C([O-])=C1O.[Na+]` [Sodium ascorbate, reference compound], the “Whitening effect” value in the data set on B16 melanoma 4A5 cell was “Δ (Less than 30%)”. Moreover, the activity at 100 µM in data set [1] lay within 100 to 200%.
